Several values for one entry are separate records, joined by “and”; a condition that tells them apart may be missing. Identical values can stand only once.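 Values below derive from 48-hour exposures of cells grown in 96-well plates, with endpoints linearly interpolated between the two concentrations bracketing the appropriate inhibition level. At the GI50, growth is halved. At the TGI there is no net growth.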
Key:
Test in all cases: inhibition of tumour cell growth, NCI panel, 48 h
[1] = system: 786-0 renal
[2] = system: ACHN renal
[3] = system: HL-60(TB) leukemia
[4] = system: HOP-92 NSCLC
[5] = system: HT29 colon
[6] = system: KM12 colon
[7] = system: NCI-H460 lung
[8] = system: U251 CNS
[9] = system: MDA-MB-435
[10] = system: PC-3 prostate

Structure (SMILES)	TGI [1] [µM]	TGI [2] [µM]	TGI [3] [µM]	TGI [4] [µM]	TGI [5] [µM]	TGI [6] [µM]	TGI [7] [µM]	TGI [8] [µM]	TGI [9] [µM]	TGI [10]	GI50 [1] [µM]	GI50 [2]	GI50 [4] [µM]	GI50 [6] [µM]	GI50 [7] [µM]	GI50 [10] [µM]	GI50 [8] [µM]	GI50 [5] [µM]	GI50 [9] [µM]	GI50 [3] [µM]
CN=C(N)NC	> 100	> 100	> 100	> 100	> 100	> 100	> 100	> 100												
CC1(C)Oc2ccccc2[N+]([O-])=C1c1ccccc1	> 100	> 100	> 100	> 100	> 100		> 100	> 100												
CCOc1ccc(N=Cc2ccc3ccccc3n2)cc1	> 100	> 100	> 76.8	> 100	> 100	> 100	> 100	> 100												
COC(=O)C1=C(O)c2cc3c(cc2[C@H](c2cc(OC)c(OC)c(OC)c2)C1)OCO3	> 100	> 100	67.6	> 100	> 100	54.3	> 100	> 100												
O=C(COC(=O)c1cccc2c(=O)c3ccccc3[nH]c12)Nc1ccc(S(=O)(=O)Nc2ncccn2)cc1	> 100	> 100	71.3	51	> 100	> 100	> 100	56.3												
N/C(=N\N=C\c1ccc(O)c(O)c1)NO	> 100	> 100	> 100	> 100	> 100	> 100	> 100	> 100												
COc1ccc2c(c1OC)C(C=C(c1ccccc1)c1ccccc1)CN(C)C2 (stereo not drawn)	39.5	> 100		40.1	42.7	48.9	31.9	57.3												
CC1=CC2=C(C#N)C(=O)OC2(C)C(c2ccccc2)C1 (stereo not drawn)	> 100	> 100		> 100	> 100	> 100	> 100	> 100	> 100	> 100 µM										
COc1cc2ccc3c4cc(OC)c(OC(C)C)cc4c[n+](C)c3c2cc1OC	> 100	> 100	> 100	> 100	> 100	> 100	> 100	> 100												
CCC(=O)Nc1ncnc2ncn(C(=O)CC)c12	> 100	> 100		> 100	> 100	> 100	> 100	> 100	> 100	> 100 µM										
COc1ccc(C[C@H]2NC[C@H](O)[C@H]2OC(C)=O)cc1	0.137	0.122		0.186	0.179	0.211	0.611	2.02	0.193	0.49 µM										
Cn1cc2ccccc2c1-c1nc(F)nc(Nc2ccc(N)cc2)n1	64	68	> 100	55.6	57.3	41.9	31.5	26.4												
CC(C)=CCC/C(C)=C/CC/C(C)=C/C1CCC(=O)C1(C)C (stereo not drawn)	32.2	30.1	27	51.7	32.4	32.7	32.6	32.7												
[N-]=[N+]=NC1C2CC3CC(C2)CC1C3 (stereo not drawn)	> 100	> 100		> 100	> 100	> 100	> 100	> 100												
COC(=O)c1ccc(/C=C/S(=O)(=O)c2ccccc2)cc1	> 100	> 100	> 100	> 100	> 100	> 100	> 100	> 100												
CCN(CC)/[N+]([O-])=N/OCC(C)O (stereo not drawn)	> 100	> 100	> 100	> 100	> 100	> 100	> 100	> 100												
CCCCCCC(O)C(O)CCC(O)C1CCC(CCCCC(O)CC2=CC(C)OC2=O)O1 (stereo not drawn)	52.1			46.7	6.82	77.7	26.9	> 100	55.2	33.1 µM	21.9	12.4 µM	18.5	24.5	10.5	13.1	15.1			
CC(=O)Oc1cc(Cl)c(OC(C)=O)c2c(OC(C)=O)c(C)c(O[Si](C)(C)C(C)(C)C)cc12	28.1		8.89	20		26.1	16.5	6.78												
Cc1ccc(-c2cc(=O)c3cc(C)c(C)c(C(=O)O)c3o2)cc1[N+](=O)[O-]	> 100	> 100			> 100	> 100	> 100	> 100												
C/C(=N\NS(=O)(=O)c1c(C)cc(C)cc1C)c1ccc[n+]([O-])n1	36	29.9	25.1	22.8	36	> 100	> 100	> 100												

Structure (SMILES)	TGI [1] [µM]	TGI [2] [µM]	TGI [3] [µM]	TGI [4] [µM]	TGI [5] [µM]	TGI [6] [µM]	TGI [7] [µM]	TGI [8] [µM]	TGI [9] [µM]	TGI [10]	GI50 [1] [µM]	GI50 [2]	GI50 [4] [µM]	GI50 [6] [µM]	GI50 [7] [µM]	GI50 [10] [µM]	GI50 [8] [µM]	GI50 [5] [µM]	GI50 [9] [µM]	GI50 [3] [µM]
Cc1ccc(-n2c3c(c4c(CN)c(O)ccc42)CCc2ccccc2C3=O)cc1	28.8	31.1		8.11	> 100	29.1	28.4	32.5	8.87	19.3 µM	14.6	16.7 µM	2.31	13.2	7.33	4.77	17.2	30.3	3	
COc1cc(/C=C2\Cc3ccccc3C2=O)cc(OC)c1OC	> 100	> 100	> 100	> 100	> 100	> 100	> 100	> 100												
O=C(CC1SC(=Nc2ccccc2Cl)NC1=O)Nc1ccc(Cl)cc1 (stereo not drawn)	> 100	> 100	> 100		> 100	> 100	> 100	> 100												
Cc1ccccc1C[P+](c1ccccc1)(c1ccccc1)c1ccccc1	> 100	> 100	5.75	3.77	14.8	11	12.9	> 100	21.3		4.23	7.28 µM	0.433	0.804	1.73		1.35	0.849	0.938	1.58
C/C=C(\C)C(=O)N1c2ccccc2CC1c1c(C)[nH]c2ccccc12 (stereo not drawn)	> 100	> 100	> 100	99.4	> 100	> 100	> 100	> 100												
CSC1SCC2C(=O)N(C)C(C(C)C)C(=O)OCC(NC(=O)c3cnc4ccccc4n3)C(=O)NC(C)C(=O)N(C)C1C(=O)N(C)C(C(C)C)C(=O)OCC(NC(=O)c1cnc3ccccc3n1)C(=O)NC(C)C(=O)N2C (stereo not drawn)										0.0132 µM and 0.0224 µM	< 0.001	< 0.001 µM and 0.00186 µM and 0.0075 µM	< 0.001	< 0.001	< 0.001		< 0.001	< 0.001		< 0.001
CCC(C)(C)NS(=O)(=O)c1ccccc1	> 100	> 100	> 100		> 100	> 100	> 100	> 100												
CC(=O)OC1(C#N)CC2OC1C1N=NN(C(=O)OC(C)(C)C)C21 (stereo not drawn)	> 100	> 100	79.4	> 31.6	> 100	> 100	> 100	> 100												
CCCCCCCCCCCCC(NC(C)=O)(C(=O)OCC)C(=O)OCC	29.3	25.3		25.4		28.9	24	28.5	31.7	21.1 µM	14.9	12.6 µM	12.2	11.1	7.65	7.03	12.4		12.6	
N.N.NCCCCCN.O=C([O-])CC(=O)[O-].O=C([O-])CC(=O)[O-].[Pt+4].[Pt+4]	> 100	> 100	> 100	> 100	> 100	> 100	> 100	> 100			> 100	66.6 µM	> 100	> 100	17.4		> 100	> 100		39.6
COc1c(Cl)[c]([Hg][O]C(C)=O)c(NCC(C)=O)c(OC)[c]1[Hg][O]C(C)=O	12.9	34.5	50.1	6.8	48.2	> 100	> 100	21.9			3.44	17.8 µM	2.28	31.7	33.2		10	19.5		19.9
Cc1ccc2c(c1)-c1oc(=O)c(-c3cc4ccccc4oc3=O)cc1C(O)O2 (stereo not drawn)	39.7	24.4		40.5	> 100	48.3	> 100	26.6	45.6	> 100 µM	20.9	10.2 µM	17.3	19.6	22.3	45.2	13.2	40.8	19.2	
OCCCCCNc1ccnc2cc(Cl)ccc12	> 100	> 100	> 100	> 100	> 100	> 100	> 100	> 100												
Cc1nc2ccccc2c(/C=C/c2ccccc2)c1C(=O)/C=C/c1ccccc1	3.02	3.62	6.51		12	4.7	4.88	2.93	6.71		1.61	1.86 µM		1.97	1.88		1.57	2.61	2.36	2.45
CCOC(=O)NC(=O)c1cn(C2OC(COC(=O)CCCCCCCCC(=O)OCC3OC(n4cc(C(=O)NC(=O)OCC)c(=O)[nH]c4=O)C4OC(C)(C)OC34)C3OC(C)(C)OC32)c(=O)[nH]c1=O (stereo not drawn)	> 100	> 100	> 100	> 100	> 100	> 100	> 100													
COc1cc2c(cc1OC)-c1ncc3cc(OC)c(OC)c(OC)c3c1C2	> 100	> 100		> 100		95.1	> 100	> 100	42.6	> 100 µM	40	32 µM	15.3	17.9	31.6	17.1	36.8		16.2	
COc1cc(OC)cc(C(=O)Cc2c(C(=O)c3ccccc3)c3ccccc3n2C(=O)c2ccccc2)c1	> 100	> 100	> 100	31.3	> 100	> 100	> 100	> 100												
CCN(CC)CCOc1ccc(Cc2ccccc2)cc1	> 100	> 100		51.1	33.9	> 100	62.1	> 100	44.2	> 100 µM	27.6	47.2 µM	5.61	25.6	22.9	26.2	26.5	12.3	18.5	
CC(CCC(=O)O)c1ccc(Br)cc1 (stereo not drawn)	> 100	> 100	> 100		> 100	> 100	> 100	> 100												
CC(C)c1cc(C(=O)[O-])c(O)c(C(C)C)c1.CC(C)c1cc(C(=O)[O-])c(O)c(C(C)C)c1.CC(C)c1cc(C(=O)[O-])c(O)c(C(C)C)c1.CC(C)c1cc(C(=O)[O-])c(O)c(C(C)C)c1.CC(C)c1cc(C(=O)[O-])c(O)c(C(C)C)c1.CC(C)c1cc(C(=O)[O-])c(O)c(C(C)C)c1.[Cu+2].[Mn+2].[Mn+2]	46.9	> 100	53.9	54	31.4	43.4	32.2	22.7			20.3	31.7 µM	19.9	18.2	15.8		9.43	15.6		17.7

Reference: PubChem BioAssay (NCI)
